Test results from ChEMBL document CHEMBL5506048, “Modular Biomimetic Strategy Enables Discovery and SAR Exploration of Oxime Macrocycles as Influenza A Virus (H1N1) Inhibitors” (J Med Chem, 2024).
Calls of active or inactive are those of the source. No cut-off for these calls is given here.

Tests used:
Influenza A virus [1] = test: Antiviral activity against Influenza virus H1N1 A/Puerto Rico/8/34 (A/PR/8/34) infected in human Calu-3 cells assessed as viral RNA measured after 3 days by one-time real time PCR assay; assay type: functional, organism-based
[2] = Selectivity index, ratio of CC50 for human Calu-3 cells to EC50 for antiviral activity against Influenza virus HINI A/Puerto Rico/8/34 (A/PR/8/34); assay type: toxicity; details: read-out: Selectivity Index
Calu-3 = test: Cytotoxicity against human Calu-3 cells assessed as cell viability measured after 3 days by CellTiter-Lumi Steady Plus Luminescent Cell Viability Assay Kit; assay type: functional; details: Calu-3, 72 h, time 3 day
Influenza A virus [3] = test: Antiviral activity against Influenza virus H1N1 A/Puerto Rico/8/34 (A/PR/8/34) infected in human Calu-3 cells assessed as viral RNA at CC50 concentration for human Calu-3 cells measured after 3 days by one-time real time PCR assay; assay type: functional, organism-based; details: time 3.0 day
Influenza A virus [4] = test: Antiviral activity against HIV pseudotyped H1N1 HA infected in human 293T cells assessed as inhibition of viral entry into cells by measuring intensity of chemiluminescence measured after 3 days by Bright-Glo luciferase assay; assay type: functional, organism-based; details: HEK293T, time 3.0 day
Influenza A virus [5] = test: Antiviral activity against Influenza virus HIN1 (A/California/07/2009 pdm09) infected in human Calu-3 cells assessed as viral RNA measured after 3 days by one-time real time PCR assay; assay type: functional, organism-based; details: Calu-3, 72 h
Ebolavirus = test: Antiviral activity against HIV pseudotyped EBOV GP infected in human 293T cells assessed as inhibition of viral entry into cells by measuring intensity of chemiluminescence measured after 3 days by Bright-Glo luciferase assay; assay type: functional, organism-based; details: HEK293T, time 3.0 day
Influenza A virus [6] = test: Antiviral activity against Influenza virus H3N2 (A/Hong Kong/8/68) infected in human Calu-3 cells assessed as viral RNA measured after 3 days by one-time real time PCR assay; assay type: functional, organism-based; details: Calu-3, 72 h
Influenza B virus = test: Antiviral activity against Influenza virus Flu B (B/Taiwan/2/62) infected in human Calu-3 cells assessed as viral RNA measured after 3 days by one-time real time PCR assay; assay type: functional, organism-based; details: B/Taiwan/2/62, Calu-3, 72 h
Influenza A virus [7] = test: Antiviral activity against HIV pseudotyped H5N1 HA infected in human 293T cells assessed as inhibition of viral entry into cells by measuring intensity of chemiluminescence measured after 3 days by Bright-Glo luciferase assay; assay type: functional, organism-based; details: HEK293T, time 3.0 day

## C=C1Cc2cc(C(F)(F)F)ccc2C(=O)NCC(C)(C)/C(=N/OCC(F)(F)F)CCCOC1=O
Influenza A virus [1]; Calu-3, 72 h
  EC50: 0.428 µM
Influenza A virus [1]; Calu-3, 72 h, time 3 day
  EC90: 1.87 µM
[2]
  selectivity ratio: > 233
Calu-3
  CC50: > 100 µM

## C=C1Cc2cc(C(F)(F)F)ccc2C(=O)NCC(C)(C)/C(=N/OC)CCC(C)OC1=O (stereo unspecified)
Influenza A virus [1]; Calu-3, 72 h
  EC50: 0.096 µM
Influenza A virus [1]; Calu-3, 72 h, time 3 day
  EC90: 0.823 µM
[2]
  selectivity ratio: > 1040
Calu-3
  CC50: > 100 µM

## C=C1Cc2cc(C(F)(F)F)ccc2C(=O)NCC(C)(C)C(=O)CCCCOC1=O
Influenza A virus [3]
  Activity: inactive
Calu-3
  CC50: > 100 µM

## C=C1Cc2cc(C(F)(F)F)ccc2C(=O)NCC(C)(C)/C(=N/OC)CCC(CO)OC1=O (stereo unspecified)
Influenza A virus [1]; Calu-3, 72 h
  EC50: 20.2 µM
Influenza A virus [1]; Calu-3, 72 h, time 3 day
  EC90: > 100 µM
[2]
  selectivity ratio: > 4
Calu-3
  CC50: > 100 µM

## C=C1Cc2cc(C(F)(F)F)ccc2C(=O)NCC(C)(C)/C(=N/OC)CC[C@H](C)OC1=O
Influenza A virus [4]
  Activity: Dose-Dependent Effect
Influenza A virus [5]
  EC50: 0.048 µM
Influenza A virus [1]; Calu-3, 72 h
  EC50: 0.013 µM
Influenza A virus [1]; Calu-3, 72 h, time 3 day
  EC90: 0.235 µM
Ebolavirus
  Activity: inactive
[2]
  selectivity ratio: 6950
Influenza A virus [6]
  EC50: > 50 µM
Influenza B virus
  EC50: > 50 µM
Influenza A virus [7]
  Activity: inactive
Calu-3
  CC50: 90.4 µM

## C=C1Cc2cc(C(F)(F)F)ccc2C(=O)NCC(C)(C)/C(=N/OC)CCC(C2CC2)OC1=O (stereo unspecified)
Influenza A virus [3]
  Activity: inactive
Calu-3
  CC50: 42.9 µM

## C=C1Cc2cc(C(F)(F)F)ccc2C(=O)NCC(C)(C)/C(=N/OC)CCCCOC1=O
Influenza A virus [1]; Calu-3, 72 h
  EC50: 2.3 µM
Influenza A virus [1]; Calu-3, 72 h, time 3 day
  EC90: 46.5 µM
[2]
  selectivity ratio: > 43
Calu-3
  CC50: > 100 µM

## CO/N=C1\CCCCOC(=O)/C(=C/c2ccc(F)cc2)Cc2cc(C(F)(F)F)ccc2C(=O)NCC1(C)C
Influenza A virus [3]
  Activity: inactive
Calu-3
  CC50: > 100 µM

## C=C1Cc2cc(C(F)(F)F)ccc2C(=O)NCC(C)(C)/C(=N/OC)CCOC1=O
Influenza A virus [3]
  Activity: inactive
Calu-3
  CC50: > 100 µM

## C=C1Cc2cc(OC)ccc2C(=O)NCC(C)(C)/C(=N/OC)CCCOC1=O
Influenza A virus [1]; Calu-3, 72 h
  EC50: 1.05 µM
Influenza A virus [1]; Calu-3, 72 h, time 3 day
  EC90: 3.55 µM
[2]
  selectivity ratio: > 95
Calu-3
  CC50: > 100 µM

## C=C1Cc2cc(C(F)(F)F)ccc2C(=O)NCC(C)(C)/C(=N/OC)CC[C@@H](C)OC1=O
Influenza A virus [1]; Calu-3, 72 h
  EC50: 1.47 µM
Influenza A virus [1]; Calu-3, 72 h, time 3 day
  EC90: > 100 µM
[2]
  selectivity ratio: 18
Calu-3
  CC50: 26.5 µM

## CO/N=C1\CCCCOC(=O)/C(=C/c2ccc(N3CCOCC3)cc2)Cc2cc(C(F)(F)F)ccc2C(=O)NCC1(C)C
Influenza A virus [3]
  Activity: inactive
Calu-3
  CC50: > 100 µM

## C=C1Cc2cc(C(F)(F)F)ccc2C(=O)NCC(C)(C)/C(=N/O)CCCCOC1=O
Influenza A virus [1]; Calu-3, 72 h
  EC50: 57.3 µM
Influenza A virus [1]; time 3.0 day
  EC90: inactive
[2]
  selectivity ratio: > 1.7
Calu-3
  CC50: > 100 µM

## C=C1Cc2cc(C(F)(F)F)ccc2C(=O)NCC(C)(C)/C(=N/OC)CCCNC1=O
Influenza A virus [1]; Calu-3, 72 h
  EC50: 0.657 µM
Influenza A virus [1]; Calu-3, 72 h, time 3 day
  EC90: 1.39 µM
[2]
  selectivity ratio: > 152
Calu-3
  CC50: > 100 µM

## C=C1Cc2cc(C(F)(F)F)ccc2C(=O)NCC2(CC2)/C(=N/OC)CCCOC1=O
Influenza A virus [1]; Calu-3, 72 h
  EC50: 0.247 µM
Influenza A virus [1]; Calu-3, 72 h, time 3 day
  EC90: 1.23 µM
[2]
  selectivity ratio: > 404
Calu-3
  CC50: > 100 µM

## C=C1Cc2cc(C(F)(F)F)ccc2C(=O)NCC(C)(C)/C(=N/OC)CCCCCCOC1=O
Influenza A virus [3]
  Activity: inactive
Calu-3
  CC50: 15.6 µM

## C=C1Cc2cc(C(F)(F)F)ccc2C(=O)NCC(C)(C)/C(=N/OCC23C[C@H]4C[C@@H](C2)C[C@@H](C3)C4)CCC(C)OC1=O (stereo partly specified)
Influenza A virus [3]
  Activity: inactive
Calu-3
  CC50: 47 µM

## C=C1Cc2ccccc2C(=O)NCC(C)(C)/C(=N/OC)CCCOC1=O
Influenza A virus [1]; Calu-3, 72 h
  EC50: 0.985 µM
Influenza A virus [1]; Calu-3, 72 h, time 3 day
  EC90: 18.3 µM
[2]
  selectivity ratio: > 101
Calu-3
  CC50: > 100 µM

## C=C(Cc1cc(C(F)(F)F)ccc1C(=O)NCC(C)(C)/C(CCCO)=N/OC)C(=O)O
Influenza A virus [3]
  Activity: inactive
Calu-3
  CC50: > 100 µM

## C=C1Cc2cc(C(F)(F)F)ccc2C(=O)NCC(C)(C)/C(=N/OC)CCCOC1=O
Influenza A virus [1]; Calu-3, 72 h
  EC50: 0.441 µM
Influenza A virus [1]; Calu-3, 72 h, time 3 day
  EC90: 0.56 µM
[2]
  selectivity ratio: > 226
Calu-3
  CC50: > 100 µM

## C=C1Cc2cc(C(F)(F)F)ccc2C(=O)NCC2(CCC2)/C(=N/OC)CC[C@H](C)OC1=O
Influenza A virus [1]; Calu-3, 72 h
  EC50: 0.22 µM
Influenza A virus [1]; Calu-3, 72 h, time 3 day
  EC90: 0.68 µM
[2]
  selectivity ratio: 305
Calu-3
  CC50: 67.3 µM

## C=C1Cc2cc(C(F)(F)F)ccc2C(=O)NCC(C)(C)/C(=N/OC)CCC(c2ccc(F)cc2)OC1=O (stereo unspecified)
Influenza A virus [3]
  Activity: inactive
Calu-3
  CC50: 27.3 µM

## C=C1Cc2cc(C(F)(F)F)ccc2C(=O)NCC(C)(C)/C(=N/OC)CCC(CC)OC1=O (stereo unspecified)
Influenza A virus [3]
  Activity: inactive
Calu-3
  CC50: 42.4 µM

## CCC(CC)Oc1ccc(/C=C2\Cc3cc(C(F)(F)F)ccc3C(=O)NCC(C)(C)/C(=N/OC)CCCCOC2=O)cc1
Influenza A virus [3]
  Activity: inactive
Calu-3
  CC50: > 100 µM

## C=C1Cc2cc(NC(C)=O)ccc2C(=O)NCC(C)(C)/C(=N/OC)CCCOC1=O
Influenza A virus [1]; Calu-3, 72 h
  EC50: 2.69 µM
Influenza A virus [1]; Calu-3, 72 h, time 3 day
  EC90: 5.06 µM
[2]
  selectivity ratio: > 37
Calu-3
  CC50: > 100 µM

## C=C1Cc2cc(C(F)(F)F)ccc2C(=O)NCC(C)(C)/C(=N/OC)CCC(CNCCO)OC1=O (stereo unspecified)
Influenza A virus [3]
  Activity: inactive
Calu-3
  CC50: > 100 µM

## C=C1Cc2cc(C(F)(F)F)ccc2C(=O)NCC(C)(C)/C(=N/OC)CCC(CN2CCOCC2)OC1=O (stereo unspecified)
Influenza A virus [3]
  Activity: inactive
Calu-3
  CC50: > 100 µM

## C=C1Cc2cc(C(F)(F)F)ccc2C(=O)NCC(C)(C)/C(=N/OC(C)C)CCC(C)OC1=O (stereo unspecified)
Influenza A virus [3]
  Activity: inactive
Calu-3
  CC50: 36.6 µM

## CO/N=C1\CCCOC(=O)C(C)Cc2cc(C(F)(F)F)ccc2C(=O)NCC1(C)C (stereo unspecified)
Influenza A virus [1]; Calu-3, 72 h
  EC50: 2.74 µM
Influenza A virus [1]; Calu-3, 72 h, time 3 day
  EC90: > 100 µM
[2]
  selectivity ratio: > 36
Calu-3
  CC50: > 100 µM

## C=C1Cc2cc(F)ccc2C(=O)NCC(C)(C)/C(=N/OC)CCCOC1=O
Influenza A virus [1]; Calu-3, 72 h
  EC50: 1.65 µM
Influenza A virus [1]; Calu-3, 72 h, time 3 day
  EC90: 1.98 µM
[2]
  selectivity ratio: > 60
Calu-3
  CC50: > 100 µM

## C=C1Cc2cc(C(F)(F)F)ccc2C(=O)NCC(C)(C)/C(=N/OC)CCC(C(=O)O)OC1=O (stereo unspecified)
Influenza A virus [3]
  Activity: inactive
Calu-3
  CC50: > 100 µM

## C=C1Cc2cc(C(F)(F)F)ccc2C(=O)NCC(C)/C(=N/OC)CCCOC1=O (stereo unspecified)
Influenza A virus [3]
  Activity: inactive
Calu-3
  CC50: > 100 µM

## C=C1Cc2cc(C(F)(F)F)ccc2C(=O)NCC(C)(C)/C(=N/OC(CC)CC)CCC(C)OC1=O (stereo unspecified)
Influenza A virus [3]
  Activity: inactive
Calu-3
  CC50: 31.9 µM

## CO/N=C1\CCCCOC(=O)C(CSCCC(=O)O)Cc2cc(C(F)(F)F)ccc2C(=O)NCC1(C)C (stereo unspecified)
Influenza A virus [3]
  Activity: inactive
Calu-3
  CC50: > 100 µM

## C=C1Cc2cc(C(F)(F)F)ccc2C(=O)NCC(C)(C)/C(=N/OC)CCCCCOC1=O
Influenza A virus [3]
  Activity: inactive
Calu-3
  CC50: 40.7 µM

## C=C1Cc2cc(N3CCOCC3)ccc2C(=O)NCC(C)(C)/C(=N/OC)CCCOC1=O
Influenza A virus [1]; Calu-3, 72 h
  EC50: 17.9 µM
Influenza A virus [1]; time 3.0 day
  EC90: inactive
[2]
  selectivity ratio: > 8
Calu-3
  CC50: > 100 µM

## C=C1Cc2ccc(C(F)(F)F)cc2C(=O)NCC(C)(C)/C(=N/OC)CCCOC1=O
Influenza A virus [1]; Calu-3, 72 h
  EC50: 0.264 µM
Influenza A virus [1]; Calu-3, 72 h, time 3 day
  EC90: 1.05 µM
[2]
  selectivity ratio: 278
Calu-3
  CC50: 73.6 µM
